According to ChEMBL document CHEMBL3352299, “Antiproliferative 4-(1,2,4-oxadiazol-5-yl)piperidine-1-carboxamides, a new tubulin inhibitor chemotype” (Bioorg Med Chem Lett, 2014):

Key:
Type in all cases: functional
K562 [1] = test: Induction of mitotic arrest in human K562 cells assessed as mitotic indices at 100 uM by light microscopy
[2] = Antiproliferative activity against human UO31 cells after 3 days by fluorescence assay; conditions: UO-31, 72 h
[3] = Antiproliferative activity against human Hs 578T cells after 3 days by fluorescence assay; conditions: 72 h
NCI-H226 = test: Antiproliferative activity against human NCI-H226 cells after 3 days by fluorescence assay; conditions: NCI-H226, 72 h
[4] = Antiproliferative activity against human HCT15 cells after 3 days by fluorescence assay; conditions: HCT-15, 72 h
NCI-H322M = test: Antiproliferative activity against human NCI-H322M cells after 3 days by fluorescence assay; conditions: 72 h
Malme-3M = test: Antiproliferative activity against human MALME-3M cells after 3 days by fluorescence assay; conditions: 72 h
[5] = Antiproliferative activity against human PC3 cells after 3 days by fluorescence assay; conditions: PC-3, 72 h
MDA-MB-468 = test: Antiproliferative activity against human MDA-MB-468 cells after 3 days by fluorescence assay; conditions: MDA-MB-468, 72 h
HL-60(TB) = test: Antiproliferative activity against human HL-60(TB) cells after 3 days by fluorescence assay; conditions: HL-60, 72 h
[6] = Antiproliferative activity against human OVCAR3 cells after 3 days by fluorescence assay; conditions: OVCAR-3, 72 h
MCF7 = test: Antiproliferative activity against human MCF7 cells after 3 days by fluorescence assay; conditions: MCF7, 72 h
[7] = Antiproliferative activity against human SKOV3 cells after 3 days by fluorescence assay; conditions: SK-OV-3, 72 h
[8] = Antiproliferative activity against human OVCAR5 cells after 3 days by fluorescence assay; conditions: OVCAR-5, 72 h
SK-MEL-28 = test: Antiproliferative activity against human SK-MEL-28 cells after 3 days by fluorescence assay; conditions: SK-MEL-28, 72 h
SNB-19 = test: Antiproliferative activity against human SNB19 cells after 3 days by fluorescence assay; conditions: SNB-19, 72 h
CCRF-CEM = test: Antiproliferative activity against human CCRF-CEM cells after 3 days by fluorescence assay; conditions: 72 h
NCI-H522 = test: Antiproliferative activity against human NCI-H522 cells after 3 days by fluorescence assay; conditions: NCI-H522, 72 h
TK-10 = test: Antiproliferative activity against human TK10 cells after 3 days by fluorescence assay; conditions: TK-10, 72 h
[9] = Antiproliferative activity against human RXF393 cells after 3 days by fluorescence assay; conditions: RXF 393, 72 h
MDA-MB-435 = test: Antiproliferative activity against human MDA-MB-435 cells after 3 days by fluorescence assay; conditions: MDA-MB-435, 72 h
[10] = Antiproliferative activity against human SF295 cells after 3 days by fluorescence assay; conditions: SF-295, 72 h
A498 = test: Antiproliferative activity against human A498 cells after 3 days by fluorescence assay; conditions: A498, 72 h
SR = test: Antiproliferative activity against human SR cells after 3 days by fluorescence assay; conditions: 72 h
[11] = Antiproliferative activity against human RPMI8226 cells after 3 days by fluorescence assay; conditions: RPMI-8226, 72 h
[12] = Antiproliferative activity against human COLO205 cells after 3 days by fluorescence assay; conditions: COLO 205, 72 h
[13] = Antiproliferative activity against human UACC257 cells after 3 days by fluorescence assay; conditions: UACC-257, 72 h
SNB-75 = test: Antiproliferative activity against human SNB75 cells after 3 days by fluorescence assay; conditions: SNB-75, 72 h
786-0 = test: Antiproliferative activity against human 786-0 cells after 3 days by fluorescence assay; conditions: 786-0, 72 h
NCI-H460 = test: Antiproliferative activity against human NCI-H460 cells after 3 days by fluorescence assay; conditions: NCI-H460, 72 h
U-251 = test: Antiproliferative activity against human U251 cells after 3 days by fluorescence assay; conditions: U-251, 72 h
[14] = Antiproliferative activity against human OVCAR8 cells after 3 days by fluorescence assay; conditions: OVCAR-8, 72 h
NCI-H23 = test: Antiproliferative activity against human NCI-H23 cells after 3 days by fluorescence assay; conditions: NCI-H23, 72 h
IGROV-1 = test: Antiproliferative activity against human IGROV1 cells after 3 days by fluorescence assay; conditions: IGROV-1, 72 h
KM12 = test: Antiproliferative activity against human KM12 cells after 3 days by fluorescence assay; conditions: KM12, 72 h
HOP-62 = test: Antiproliferative activity against human HOP62 cells after 3 days by fluorescence assay; conditions: HOP-62, 72 h
[15] = Antiproliferative activity against human LOXIMVI cells after 3 days by fluorescence assay; conditions: LOX IMVI, 72 h
[16] = Antiproliferative activity against human MOLT4 cells after 3 days by fluorescence assay; conditions: MOLT-4, 72 h
SN12C = test: Antiproliferative activity against human SN12C cells after 3 days by fluorescence assay; conditions: 72 h
SF-268 = test: Antiproliferative activity against human SF268 cells after 3 days by fluorescence assay; conditions: SF-268, 72 h
[17] = Antiproliferative activity against human SF539 cells after 3 days by fluorescence assay; conditions: SF-539, 72 h
[18] = Antiproliferative activity against human UACC62 cells after 3 days by fluorescence assay; conditions: UACC-62, 72 h
M14 = test: Antiproliferative activity against human M14 cells after 3 days by fluorescence assay; conditions: M14, 72 h
[19] = Antiproliferative activity against human BT549 cells after 3 days by fluorescence assay; conditions: BT-549, 72 h
CAKI-1 = test: Antiproliferative activity against human CAKI-1 cells after 3 days by fluorescence assay; conditions: CAKI-1, 72 h
SK-MEL-2 = test: Antiproliferative activity against human SK-MEL-2 cells after 3 days by fluorescence assay; conditions: SK-MEL-2, 72 h
SW-620 = test: Antiproliferative activity against human SW620 cells after 3 days by fluorescence assay; conditions: SW-620, 72 h
T47D = test: Antiproliferative activity against human T47D cells after 3 days by fluorescence assay; conditions: 72 h
K562 [20] = test: Antiproliferative activity against human K562 cells after 3 days by fluorescence assay; conditions: K562, 72 h
[21] = Antiproliferative activity against human HCT116 cells after 3 days by fluorescence assay; conditions: HCT-116, 72 h
A549 = test: Antiproliferative activity against human A549 cells after 3 days by fluorescence assay; conditions: A549, 72 h
[22] = Antiproliferative activity against human OVCAR4 cells after 3 days by fluorescence assay; conditions: OVCAR-4, 72 h
HT-29 = test: Antiproliferative activity against human HT-29 cells after 3 days by fluorescence assay; conditions: HT-29, 72 h
MDA-MB-231 = test: Antiproliferative activity against human MDA-MB-231 cells after 3 days by fluorescence assay; conditions: MDA-MB-231, 72 h
[23] = Antiproliferative activity against human NCI-ADR-RES cells after 3 days by fluorescence assay; conditions: 72 h
[24] = Antiproliferative activity against human HCC2998 cells after 3 days by fluorescence assay; conditions: HCC 2998, 72 h
[25] = Antiproliferative activity against human EKVX cells after 3 days by fluorescence assay; conditions: 72 h
DU-145 = test: Antiproliferative activity against human DU145 cells after 3 days by fluorescence assay; conditions: DU-145, 72 h
ACHN = test: Antiproliferative activity against human ACHN cells after 3 days by fluorescence assay; conditions: 72 h
[26] = Antiproliferative activity against human HOP92 cells after 3 days by fluorescence assay; conditions: HOP-92, 72 h
SK-MEL-5 = test: Antiproliferative activity against human SK-MEL-5 cells after 3 days by fluorescence assay; conditions: SK-MEL-5, 72 h

COc1ccc(/C=C\c2cc(OC)c(OC)c(OC)c2)cc1O [COMBRETASTATIN A4]
Activity (K562 [1]): 82%

COc1cccc(-c2noc(Nc3ccc(C)cc3)n2)c1OC
GI50 [2]: 5.37 µM
GI50 [3]: 3.47 µM
GI50 (NCI-H226): 7.76 µM
GI50 [4]: 1.78 µM
GI50 (NCI-H322M): 5.13 µM
GI50 (Malme-3M): 1.74 µM
GI50 [5]: 3.8 µM
GI50 (MDA-MB-468): 1.1 µM
GI50 (HL-60(TB)): 0.676 µM
GI50 [6]: 1.15 µM
GI50 (MCF7): 1.58 µM
GI50 [7]: 2.88 µM
GI50 [8]: 11.2 µM
GI50 (SK-MEL-28): 2.34 µM
GI50 (SNB-19): 3.8 µM
GI50 (CCRF-CEM): 2.34 µM
GI50 (NCI-H522): 0.891 µM
GI50 (TK-10): 4.47 µM
GI50 [9]: 1.32 µM
GI50 (MDA-MB-435): 0.219 µM
GI50 [10]: 1.1 µM
GI50 (A498): 2.4 µM
GI50 (SR): 0.234 µM
GI50 [11]: 2.95 µM
GI50 [12]: 2.57 µM
GI50 [13]: 2.82 µM
GI50 (SNB-75): 1.91 µM
GI50 (786-0): 4.79 µM
GI50 (NCI-H460): 2.09 µM
GI50 (U-251): 3.72 µM
GI50 [14]: 3.98 µM
GI50 (NCI-H23): 1.74 µM
GI50 (IGROV-1): 4.79 µM
GI50 (KM12): 1 µM
GI50 (HOP-62): 2.29 µM
GI50 [15]: 3.09 µM
GI50 [16]: 4.68 µM
GI50 (SN12C): 6.03 µM
GI50 (SF-268): 4.79 µM
GI50 [17]: 1.2 µM
GI50 [18]: 2.88 µM
GI50 (M14): 1.35 µM
GI50 [19]: 6.17 µM
GI50 (CAKI-1): 3.16 µM
GI50 (SK-MEL-2): 2.29 µM
GI50 (SW-620): 0.603 µM
GI50 (T47D): 3.63 µM
GI50 (K562 [20]): 0.245 µM
GI50 [21]: 1.15 µM
GI50 (A549): 3.16 µM
GI50 [22]: 6.31 µM
GI50 (HT-29): 0.525 µM
GI50 (MDA-MB-231): 10.7 µM
GI50 [23]: 0.562 µM
GI50 [24]: 3.63 µM
GI50 [25]: 5.5 µM
GI50 (DU-145): 3.16 µM
GI50 (ACHN): 7.08 µM
GI50 [26]: 3.89 µM
GI50 (SK-MEL-5): 3.09 µM
